Source: ChEMBL document CHEMBL1150732, “Anticandidal activity of eupolauridine and onychine, alkaloids from Cleistopholis patens” (1987)
≈ marks a conversion by molar mass, not a printed value. Calls of active or inactive are those of the source. The rule behind the calls is not given here.

Test system: Candida albicans
Assay: Antifungal activity against Candida albicans B311 after 24 to 48 hrs by twofold serial dilution method
Type: functional

| Structure (SMILES) | MIC [µg/mL] | Activity |
| --- | --- | --- |
| C[C@@H]1[C@H](O)[C@@H](C)/C=C/C=C/C=C/C=C/C=C/C=C/C=C/[C@H](O[C@@H]2O[C@H](C)[C@@H](O)[C@H](N)[C@@H]2O)C[C@@H]2O[C@](O)(C[C@@H](O)C[C@@H](O)[C@H](O)CC[C@@H](O)C[C@@H](O)CC(=O)O[C@H]1C)C[C@H](O)[C@H]2C(=O)O [AMPHOTERICIN B] | 0.39 (≈ 0.422 µM) |  |
| c1ccc2c(c1)-c1nccc3ccnc-2c13 [EUPOLAURIDINE] | 1.56 (≈ 7.64 µM) |  |
| Cc1ccnc2c1C(=O)c1ccccc1-2 |  | Active |
| Cc1ccnc2c1-c1ccccc1C2=O | 3.12 (≈ 16 µM) |  |
